# Read-outs that look alike come from different tables or passages of the source.
# Legend:
# [1] = tested on: acetic acid‐induced writhings in male CD‐1 mice; experiment: Acetic acid‐induced writhing test in mice with PK/PD model; details: for interindividual variability in the k 2, percent coefficient of variation: single‐agent model
# [2] = tested on: plasma protein; details: cited from earlier work
# [3] = tested on: plasma protein; details: cited from earlier work; remark: listed apart in the source
# [4] = Population PK of trazodone and gabapentin as single agents in mice; format: in vivo; details: for D 1 (duration of the zero‐order absorption) / k 12 (intercompartment rate constant) / k 21 (intercompartment rate constant): male mice, fasting, population PK estimate; for Inter‐individual variability ω2 of V / Inter‐individual variability ω2 of k / Inter‐individual variability ω2 of k12: mice, population PK variance estimate; for Vd/F / k el: male, mouse, plasma
# [5] = tested on: patients with diabetes with peripheral neuropathy / painful distal symmetrical polyneuropathy; details: cited from earlier work
# [6] = tested on: thermal hyperalgesia in CCI rat model; details: cited from earlier work
# [7] = combination model, interaction (synergism), trazodone‐gabapentin 0.075–1.5, 0.15–1.5 mg/kg
# [8] = combination model, pure additivity, trazodone‐gabapentin 0.075–1.5, 0.15–1.5 mg/kg
# [9] = combination model, pure additivity, trazodone‐gabapentin 0.5–5, 1.5–15 mg/kg
# [10] = single model, gabapentin i.p. 1.5, 5 and 15 mg/kg
# [11] = gabapentin 10, 30 and 100 mg/kg
# [12] = 31 patients, oral trazodone 50 or 100 mg/day for 2 weeks
structure (smiles),measurement,setting,value
NCC1(CC(=O)O)CCCCC1 [Gabapentin],Interindividual variance ω2 of k2,[1]; [7],1.78
same,k 2 (potency parameter),[1]; [7],817 M⁻¹ s⁻¹
same,Interindividual variability ω2 of k2,[1]; [8],1.67
same,k 2 (potency parameter),[1]; [8],1350 M⁻¹ s⁻¹
same,Interindividual variability ω2 of k2,[1]; [9],1.71
same,k 2 (potency parameter),[1]; [9],667 M⁻¹ s⁻¹
same,antinociceptive effect (number of writhes vs vehicle),[1]; gabapentin alone 1.5 mg/kg i.p.,ineffective
same,antinociceptive effect (number of writhes vs vehicle),"[1]; gabapentin alone 5 or 15 mg/kg i.p., p < 0.001",significant reduction of the writhes number
same,Interindividual variability ω2 of k2,[1]; [10],1.97
same,k 2 (potency parameter),[1]; [10],765 M⁻¹ s⁻¹
same,"interindividual variability in the k 2, percent coefficient of variation",[1],140
same,plasma protein binding,[2]; humans,not protein‐bound
same,plasma protein binding,[3]; mice,not protein‐bound
same,D 1 (duration of the zero‐order absorption),[4]; [11],0.167 h
same,k 12 (intercompartment rate constant),[4]; [11],0.935 h⁻¹
same,k 21 (intercompartment rate constant),[4]; [11],0.110 h⁻¹
same,Inter‐individual variability ω2 of V,[4]; [11],0.00287
same,Inter‐individual variability ω2 of k,[4]; [11],0.337
same,Inter‐individual variability ω2 of k12,[4]; [11],1.43
same,Vd/F,[4]; 100 mg/kg,0.846 L/kg
same,k el,[4]; 100 mg/kg,3.11e-05 s⁻¹
O=c1n(CCCN2CCN(c3cccc(Cl)c3)CC2)nc2ccccn12 [Trazodone],patients who experienced complete relief,[5]; [12],22.6%
same,patients who experienced symptomatic relief,[5]; [12],61.3%
same,effect on pain and numbness,"[5]; six patients with diabetes affected by peripheral neuropathy, 100 mg/day",good effect in pain relief and numbness
same,Interindividual variance ω2 of k2,[1]; [7],1.42
same,k 2 (potency parameter),[1]; [7],182000 M⁻¹ s⁻¹
same,Interindividual variability ω2 of k2,[1]; [8],1.43
same,k 2 (potency parameter),[1]; [8],212000 M⁻¹ s⁻¹
same,Interindividual variability ω2 of k2,[1]; [9],1.40
same,k 2 (potency parameter),[1]; [9],170000 M⁻¹ s⁻¹
same,k 2 (potency parameter),"[1]; single model, trazodone o.s. 0.075, 0.15, 0.5, 1.5, 2.5 and 4.5 mg/kg",182000 M⁻¹ s⁻¹
same,Interindividual variability ω2 of k2,"[1]; single model, trazodone o.s. 0.075-4.5 mg/kg",1.42
same,"interindividual variability in the k 2, percent coefficient of variation",[1],119
same,antinociceptive effect (number of writhes vs vehicle),[1]; trazodone alone 0.075 or 0.15 mg/kg o.s.,ineffective
same,antinociceptive effect (number of writhes vs vehicle),"[1]; trazodone alone 0.5 or 1.5 mg/kg o.s., p < 0.001",significant reduction of the writhes number
same,plasma protein binding,"[2]; human, ref internal unpublished data",97%
same,plasma protein binding,"[3]; mouse, ref internal unpublished data",89%
same,Vd/F,[4]; 10 mg/kg,5.95 L/kg
same,k el,[4]; 10 mg/kg,0.000347 s⁻¹
same,D 1 (duration of the zero‐order absorption),"[4]; trazodone 1, 3 and 10 mg/kg",0.0833 h
same,k 12 (intercompartment rate constant),"[4]; trazodone 1, 3 and 10 mg/kg",0.982 h⁻¹
same,k 21 (intercompartment rate constant),"[4]; trazodone 1, 3 and 10 mg/kg",1.51 h⁻¹
same,Inter‐individual variability ω2 of V,"[4]; trazodone 1, 3 and 10 mg/kg",0.0526
same,Inter‐individual variability ω2 of k,"[4]; trazodone 1, 3 and 10 mg/kg",0.00899
same,Inter‐individual variability ω2 of k12,"[4]; trazodone 1, 3 and 10 mg/kg",0.577
same,effect on thermal hyperalgesia,[6],dose‐dependent analgesic effect

# Source: publication PMC10087074 (Clinical and Translational Science, 2023)
